Measurements reported in ChEMBL document CHEMBL1150396, “New PPARgamma ligands based on 2-hydroxy-1,4-naphthoquinone: computer-aided design, synthesis, and receptor-binding studies” (Bioorg Med Chem Lett, 2008).

Molecular target: T1, Peroxisome proliferator-activated receptor gamma (Rattus norvegicus) (UniProt O88275)
T1 sequence (whole entry): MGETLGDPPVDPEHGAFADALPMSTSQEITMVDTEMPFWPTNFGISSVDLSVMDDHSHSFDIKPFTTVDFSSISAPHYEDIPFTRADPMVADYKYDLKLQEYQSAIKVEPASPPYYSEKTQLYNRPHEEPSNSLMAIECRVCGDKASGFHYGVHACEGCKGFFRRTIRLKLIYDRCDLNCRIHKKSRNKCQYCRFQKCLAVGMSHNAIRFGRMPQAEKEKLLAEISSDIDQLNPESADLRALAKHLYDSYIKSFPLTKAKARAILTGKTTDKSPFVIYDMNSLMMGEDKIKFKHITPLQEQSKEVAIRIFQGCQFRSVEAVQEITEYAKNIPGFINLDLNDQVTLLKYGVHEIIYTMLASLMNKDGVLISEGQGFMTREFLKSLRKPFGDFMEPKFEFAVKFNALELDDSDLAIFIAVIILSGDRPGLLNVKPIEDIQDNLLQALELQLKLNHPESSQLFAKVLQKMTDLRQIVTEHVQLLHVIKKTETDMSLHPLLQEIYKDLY
Experiment: Displacement of [3H]rosigliatzone from PPARgamma in rat adipocytes at 0.1 uM
Assay type: cell-based

| Structure (SMILES) | Activity [%] |
| --- | --- |
| Cc1ccc(OCCOc2ccc(CC3=C(O)C(=O)c4ccccc4C3=O)cc2)cc1 | < 20 |
| O=C1C(O)=C(Cc2ccc(OCCOc3ccc4c(c3)CCC4)cc2)C(=O)c2ccccc21 | < 20 |
| O=C1C(O)=C(Cc2ccc(OCCOc3cccc4ccccc34)cc2)C(=O)c2ccccc21 | < 20 |
| O=C1C(O)=C(Cc2ccc(OCCOc3ccc(Cl)cc3)cc2)C(=O)c2ccccc21 | < 20 |

Molecular target: T2, Peroxisome proliferator-activated receptor gamma (Rattus norvegicus, UniProt O88275)
T2 sequence (O88275 whole entry): T1 sequence (whole entry)
Experiment: Displacement of [3H]rosigliatzone from PPARgamma in rat adipocytes
Assay type: cell-based

| Structure (SMILES) | IC50 [nM] |
| --- | --- |
| N#Cc1ccc(OCCOc2ccc(CC3=C(O)C(=O)c4ccccc4C3=O)cc2)cc1 | 1900 |
| O=C1C(O)=C(Cc2ccc(OCc3ccccc3F)cc2)C(=O)c2ccccc21 | 200 |
| CCc1ccc(CCOc2ccc(CC3SC(=O)NC3=O)cc2)nc1 (centres undefined) [PIOGLITAZONE] | 700 |
| COc1ccc(OCCOc2ccc(CC3=C(O)C(=O)c4ccccc4C3=O)cc2)cc1 | 56200 |
| O=C1C(O)=C(Cc2ccc(OCc3ccccc3)cc2)C(=O)c2ccccc21 | 3600 |
